From patent publication US12396459B2, “Synergistically effective herbicide composition comprising pyridate and at least one defined 4-HPPD inhibitor” (BELCHIM CROP PROTECTION NV, priority 2018, dated 2025)

Key:
Assay type in all cases: in vivo
Abutilon theophrasti = test: Field trial post-emergence in maize: ABUTH; settings: 31-48 DAA; # = 2; g a.c./ha: PYR 300, MES 100, PYR + MES 300 + 90
Protocol: (§1) Herbicidal activity of herbicide compositions according to the first aspect of the present invention with regard to different types of unwanted vegetation was determined during trials performed on test fields (field trials). Individual compositions comprising pyridate and individual compositions comprising a defined 4-HPPD inhibitor are compared with a herbicide composition according to the invention comprising both pyridate and a defined 4-HPPD inhibitor. The expected activity of the combination of the active compounds pyridate and a defined 4-HPPD inhibitor is calculated according to above mentioned calculation method by Colby, in order to evaluate a synergistic effect between pyridate and a defined 4-HPPD inhibitor.
(§2) Herbicidal activity was determined by applying herbicide compositions on emerged unwanted vegetation on fields where maize was cultivated. Pyridate and a defined 4-HPPD inhibitor were applied as a tank mixture by mixing these active compounds prior to use in a spray tank. The corresponding mixture was in the form of a spray liquor. […] At a specified number of days after application (DAA), the degree of damage to the unwanted vegetation is rated in % of plants of unwanted vegetation that were killed, which was assessed by visually controlling the plants.

Atriplex patula = test: Field trial post-emergence in maize: ATXPA
Protocol: as §1
(§3) Herbicidal activity was determined by applying herbicide compositions on emerged unwanted vegetation on fields where maize was cultivated. Pyridate and a defined 4-HPPD inhibitor were applied as a tank mixture by mixing these active compounds prior to use in a spray tank. The corresponding mixture was in the form of a spray liquor. Besides, spray liquors of individual compositions comprising pyridate and of individual compositions comprising a defined 4-HPPD inhibitor were used. Test plants of unwanted vegetation with a growth stage corresponding to BBCH 10-18 (according to the extended BBCH-scale) were sprayed with the active compound preparations such that particular desired amounts of active compounds are applied per unit area. Spray liquor was diluted with water to arrive at an application volume of 50 to 450 L/ha. At a specified number of days after application (DAA), the degree of damage to the unwanted vegetation is rated in % of plants of unwanted vegetation that were killed, which was assessed by visually controlling the plants.
(§4) Example 1 concerns a herbicide composition comprising a combination of pyridate and mesotrione, which was applied post-emergence on unwanted vegetation on a field where maize was cultivated, according to the test conditions mentioned above.

Matricaria chamomilla = test: Examples 6-8 herbicidal effect: MATCH; settings: 7 DAA
Digitaria sanguinalis [1] = test: Field trial post-emergence in maize: DIGSA; settings: g a.c./ha: PYR 300, MES 100, PYR + MES 300 + 90
Protocol: as §1, §3

Galinsoga parviflora = test: Field trial post-emergence in maize: GASPA; settings: 31-48 DAA; # = 3; g a.c./ha: PYR 300, MES 100, PYR + MES 300 + 90
Protocol: as §1, §2

Veronica persica = test: Examples 6-8 herbicidal effect: VERPE; settings: 7 DAA
Rumex obtusifolius = test: Field trial post-emergence in maize: RUMOB
Protocol: as §1, §3, §4

Stachys arvensis = test: Field trial post-emergence in maize: STAAR; settings: 7-14 DAA; # = 1; g a.c./ha: PYR 300, MES 100, PYR + MES 300 + 90
Protocol: as §1, §2

Polygonum aviculare = test: Field trial post-emergence in maize: POLAV
Protocol: as §1, §3, §4

Datura stramonium = test: Field trial post-emergence in maize: DATST; settings: 7-14 DAA; # = 2; g a.c./ha: PYR 300, MES 100, PYR + MES 300 + 90
Protocol: as §1, §2

Chenopodium album = test: Examples 6-8 herbicidal effect: CHEAL; settings: 7 DAA
Kickxia elatine = test: Field trial post-emergence in maize: KICEL
Protocol: as §1, §3, §4

Stellaria media = test: Field trial post-emergence in maize: STEME
Protocol: as §1, §3

Lamium purpureum = test: Field trial post-emergence in maize: LAMPU
Protocol: as §1, §3, §4

Geranium sp. = test: Field trial post-emergence in maize: GERSS; settings: # = 1, g a.c./ha: PYR 300, MES 100, PYR + MES 300 + 90
Protocol: as §1, §3

Mercurialis annua = test: Field trial post-emergence in maize: MERAN
Protocol: as §1, §3, §4

Brassica napus (winter) = test: Field trial post-emergence in maize: BRSNW; settings: # = 1, g a.c./ha: PYR 300, MES 100, PYR + MES 300 + 90
Protocol: as §1, §3

Anagallis arvensis = test: Field trial post-emergence in maize: ANGAR; settings: 7-14 DAA; # = 2; g a.c./ha: PYR 300, MES 100, PYR + MES 300 + 90
Protocol: as §1, §2

Persicaria maculosa = test: Field trial post-emergence in maize: POLPE; settings: for herbicidal effect (h.e.): g a.c./ha: PYR 300, MES 100, PYR + MES 300 + 90
Protocol: as §1, §3

Digitaria sanguinalis [2] = test: Examples 6-8 herbicidal effect: DIGSA; settings: 7 DAA
[3] = g a.c./ha: PYR 10, TEM 22, PYR + TEM 10 + 100
[4] = g a.c./ha: PYR 300, PYR + MES 300 + 80
[5] = g a.c./ha: PYR 300, SCT 300, PYR + SCT 300 + 300
[6] = g a.c./ha: PYR 300, TEM 100, PYR + TEM 300 + 100
[7] = g a.c./ha: PYR 450, SCT 450, PYR + SCT 300 + 450
[8] = g a.c./ha: PYR 600, PYR + SCT 600 + 300
[9] = g a.c./ha: PYR 900, TEM 44, PYR + TEM 900 + 44

## CCCCCCCCSC(=O)Oc1cc(Cl)nnc1-c1ccccc1 [PYR, (6-chloro-3-phenylpyridazin-4-yl) octylsulfanylformate]
Abutilon theophrasti
  herbicidal effect (h.e.): 73%
Atriplex patula; ATXPA 24-31 DAA 300 g a.c./ha
  PYR h.e.: 43%
Atriplex patula; ATXPA 24-31 DAA 600 g a.c./ha
  PYR h.e.: 49%
Matricaria chamomilla; [3]
  herbicidal effect (h.e.): 0%
Matricaria chamomilla; [4]
  herbicidal effect (h.e.): 0%
Matricaria chamomilla; [5]
  herbicidal effect (h.e.): 0%
Matricaria chamomilla; [6]
  herbicidal effect (h.e.): 0%
Matricaria chamomilla; [7]
  herbicidal effect (h.e.): 0%
Matricaria chamomilla; [8]
  herbicidal effect (h.e.): 0%
Matricaria chamomilla; [9]
  herbicidal effect (h.e.): 0%
Digitaria sanguinalis [1]; 7-14 DAA, # = 2
  herbicidal effect (h.e.): 30%
Digitaria sanguinalis [1]; 18-28 DAA, # = 2
  herbicidal effect (h.e.): 24%
Digitaria sanguinalis [1]; 31-48 DAA, # = 1
  herbicidal effect (h.e.): 48%
Galinsoga parviflora
  herbicidal effect (h.e.): 40%
Veronica persica; [3]
  herbicidal effect (h.e.): 0%
Veronica persica; [4]
  herbicidal effect (h.e.): 8%
Veronica persica; [5]
  herbicidal effect (h.e.): 10%
Veronica persica; [6]
  herbicidal effect (h.e.): 10%
Veronica persica; [7]
  herbicidal effect (h.e.): 15%
Veronica persica; [8]
  herbicidal effect (h.e.): 10%
Veronica persica; [9]
  herbicidal effect (h.e.): 50%
Rumex obtusifolius; RUMOB 14-20 DAA 300 g a.c./ha
  PYR h.e.: 20%
Rumex obtusifolius; RUMOB 14-20 DAA 600 g a.c./ha
  PYR h.e.: 30%
Rumex obtusifolius; RUMOB 14-20 DAA 900 g a.c./ha
  PYR h.e.: 55%
Stachys arvensis
  herbicidal effect (h.e.): 35%
Polygonum aviculare; POLAV 14-20 DAA 300 g a.c./ha
  PYR h.e.: 18%
Polygonum aviculare; POLAV 24-31 DAA 300 g a.c./ha
  PYR h.e.: 17%
Datura stramonium
  herbicidal effect (h.e.): 70%
Chenopodium album; [3]
  herbicidal effect (h.e.): 0%
Chenopodium album; [4]
  herbicidal effect (h.e.): 6%
Chenopodium album; [5]
  herbicidal effect (h.e.): 3%
Chenopodium album; [6]
  herbicidal effect (h.e.): 5%
Chenopodium album; [7]
  herbicidal effect (h.e.): 10%
Chenopodium album; [8]
  herbicidal effect (h.e.): 22%
Chenopodium album; [9]
  herbicidal effect (h.e.): 90%
Kickxia elatine; KICEL 14-20 DAA 300 g a.c./ha
  PYR h.e.: 0%
Kickxia elatine; KICEL 14-20 DAA 600 g a.c./ha
  PYR h.e.: 0%
Kickxia elatine; KICEL 14-20 DAA 900 g a.c./ha
  PYR h.e.: 0%
Kickxia elatine; KICEL 24-31 DAA 300 g a.c./ha
  PYR h.e.: 0%
Kickxia elatine; KICEL 24-31 DAA 600 g a.c./ha
  PYR h.e.: 0%
Kickxia elatine; KICEL 24-31 DAA 900 g a.c./ha
  PYR h.e.: 0%
Stellaria media; 18-28 DAA, # = 4, g a.c./ha: PYR 300, MES 100, PYR + MES 300 + 90
  herbicidal effect (h.e.): 35%
Stellaria media; STEME 14-20 DAA 300 g a.c./ha
  PYR h.e.: 18%
Stellaria media; STEME 14-20 DAA 600 g a.c./ha
  PYR h.e.: 42%
Stellaria media; STEME 14-20 DAA 900 g a.c./ha
  PYR h.e.: 55%
Stellaria media; STEME 24-31 DAA 300 g a.c./ha
  PYR h.e.: 16%
Stellaria media; STEME 24-31 DAA 600 g a.c./ha
  PYR h.e.: 30%
Stellaria media; STEME 24-31 DAA 900 g a.c./ha
  PYR h.e.: 50%
Lamium purpureum; LAMPU 14-20 DAA 300 g a.c./ha
  PYR h.e.: 28%
Lamium purpureum; LAMPU 14-20 DAA 600 g a.c./ha
  PYR h.e.: 60%
Lamium purpureum; LAMPU 14-20 DAA 900 g a.c./ha
  PYR h.e.: 65%
Lamium purpureum; LAMPU 24-31 DAA 300 g a.c./ha
  PYR h.e.: 14%
Lamium purpureum; LAMPU 24-31 DAA 600 g a.c./ha
  PYR h.e.: 46%
Lamium purpureum; LAMPU 24-31 DAA 900 g a.c./ha
  PYR h.e.: 67%
Geranium sp.; 7-14 DAA
  herbicidal effect (h.e.): 13%
Geranium sp.; 18-28 DAA
  herbicidal effect (h.e.): 0%
Geranium sp.; 31-48 DAA
  herbicidal effect (h.e.): 0%
Mercurialis annua; MERAN 14-20 DAA 300 g a.c./ha
  PYR h.e.: 48%
Mercurialis annua; MERAN 14-20 DAA 600 g a.c./ha
  PYR h.e.: 78%
Mercurialis annua; MERAN 24-31 DAA 300 g a.c./ha
  PYR h.e.: 10%
Mercurialis annua; MERAN 24-31 DAA 600 g a.c./ha
  PYR h.e.: 33%
Mercurialis annua; MERAN 24-31 DAA 900 g a.c./ha
  PYR h.e.: 80%
Brassica napus (winter); 7-14 DAA
  herbicidal effect (h.e.): 5%
Brassica napus (winter); 18-28 DAA
  herbicidal effect (h.e.): 5%
Anagallis arvensis
  herbicidal effect (h.e.): 6%
Persicaria maculosa; 7-14 DAA, # = 3
  herbicidal effect (h.e.): 42%
Persicaria maculosa; 31-48 DAA, # = 4
  herbicidal effect (h.e.): 32%
Persicaria maculosa; POLPE 14-20 DAA 300 g a.c./ha
  PYR h.e.: 15%
Persicaria maculosa; POLPE 14-20 DAA 600 g a.c./ha
  PYR h.e.: 23%
Persicaria maculosa; POLPE 14-20 DAA 900 g a.c./ha
  PYR h.e.: 28%
Persicaria maculosa; POLPE 24-31 DAA 300 g a.c./ha
  PYR h.e.: 17%
Persicaria maculosa; POLPE 24-31 DAA 600 g a.c./ha
  PYR h.e.: 33%
Persicaria maculosa; POLPE 24-31 DAA 900 g a.c./ha
  PYR h.e.: 32%
Digitaria sanguinalis [2]; [3]
  herbicidal effect (h.e.): 0%
Digitaria sanguinalis [2]; [4]
  herbicidal effect (h.e.): 0%
Digitaria sanguinalis [2]; [5]
  herbicidal effect (h.e.): 0%
Digitaria sanguinalis [2]; [6]
  herbicidal effect (h.e.): 5%
Digitaria sanguinalis [2]; [7]
  herbicidal effect (h.e.): 0%
Digitaria sanguinalis [2]; [8]
  herbicidal effect (h.e.): 5%
Digitaria sanguinalis [2]; [9]
  herbicidal effect (h.e.): 0%
